Data from publication PMC9226124, “Macrocycle-stabilization of its interaction with 14-3-3 increases plasma membrane localization and activity of CFTR” (Nature Communications, 2022).
“And” between values parts separate entries of the source, which are not always exact repeats. Equal entries are not always repeated.

What was measured:
[1] = target: T1, FITC-labeled CFTRpS753pS768 peptide (no 14-3-3) (Homo sapiens, UniProt P13569); assay: Dose-response FP control assay in the absence of 14-3-3; type: binding; details: No 14-3-3
T1 construct: made in house; host or cells: synthetic peptide
T1 sequence (P13569 747-774 limits assumed): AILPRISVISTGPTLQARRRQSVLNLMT
Description: The 14-3-3β concentration used for the FP screening assay was 10 μM (dashed line). c HTS FP assay of the Cyclenium library. The samples contain 100 nM of FITC-CFTR_pS753pS768 peptide, 10 μM 14-3-3β, and 50 μM compound. FC-A (100 µM) was added as a positive control and DMSO as the negative control. Hit compounds are defined as a polarization increase which is higher than 20% of the response of FC-A. Red squares are compounds that appeared positive in the negative control without 14-3-3. […] Background polarization was subtracted from all values, n = 3 technical replicates. Compounds selected for further analysis are indicated with an asterisk. e Polarization in the absence of 14-3-3. […] Source data are provided as a Source Data file.
The FITC-labeled peptides were dissolved in FP buffer (10 mM HEPES pH 7.4, 150 mM NaCl, 0.1% Tween20, 1 mg/mL BSA) to a final concentration of 100 nM or 10 nM. For the dose-response assays, a 14-3-3β concentration of 10 μM was used while titrating the compounds in a two-times dilution series and, for the other assays, a dilution series of 14-3-3β was made with constant concentration of compound. The dilution series were made in 384 Corning Black Round Bottom well plates and their polarization was measured with a Tecan Infinite F500 plate reader (ex. = 485 nm, em. = 535 nm). The method of fitting of the curves was: “log(agonist) vs. response – Variable slope (four parameters)” from GraphPad Prism. The equation is Y = Bottom + (Top-Bottom)/(1 + 10^((LogEC50-X)*HillSlope)).

[2] = target: T2, 14-3-3β/CFTRpS753pS768 complex (Homo sapiens, UniProt P13569+P31946); assay: FP assay, 14-3-3β titration at constant compound concentration (apparent KD); type: binding
T2 construct: His6 (cleaved yes); made in house; peptide synthetic
T2 sequence (P31946 whole entry): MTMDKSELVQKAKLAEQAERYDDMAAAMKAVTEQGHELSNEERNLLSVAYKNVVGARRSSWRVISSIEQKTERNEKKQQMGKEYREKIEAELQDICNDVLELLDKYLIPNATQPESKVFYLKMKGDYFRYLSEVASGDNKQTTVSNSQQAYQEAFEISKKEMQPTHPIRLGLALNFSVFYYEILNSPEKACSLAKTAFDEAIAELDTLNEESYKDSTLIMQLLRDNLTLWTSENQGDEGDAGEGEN
Description: FC-A (100 µM) was added as a positive control and DMSO as the negative control. […] Background polarization was subtracted from all values, n = 3 technical replicates. […] Source data are provided as a Source Data file. […]
The FITC-labeled peptides were dissolved in FP buffer (10 mM HEPES pH 7.4, 150 mM NaCl, 0.1% Tween20, 1 mg/mL BSA) to a final concentration of 100 nM or 10 nM. […] The dilution series were made in 384 Corning Black Round Bottom well plates and their polarization was measured with a Tecan Infinite F500 plate reader (ex. = 485 nm, em. = 535 nm). The method of fitting of the curves was: “log(agonist) vs. response – Variable slope (four parameters)” from GraphPad Prism. The equation is Y = Bottom + (Top-Bottom)/(1 + 10^((LogEC50-X)*HillSlope)).
from the hit validation library.
f the compound, 100 µM FC-A, or both compound and FC-A, 100 µM each. Background polarization was subtracted f
rom all values, n=3 technical replicates.
Source data are provided as a Source Data file.

FP signal ([1]; compound 476.8 pM): 4
FP signal ([1]; compound 953.7 pM): 5
FP signal ([1]; compound 1.90735e-9 M): 5
FP signal ([1]; compound 3.8147e-9 M): 6
FP signal ([1]; compound 7.6294e-9 M): 4
FP signal ([1]; compound 1.52588e-8 M): 6
FP signal ([1]; compound 3.05176e-8 M): 3
FP signal ([1]; compound 6.10352e-8 M): 5
FP signal ([1]; compound 1.2207e-7 M): 8
FP signal ([1]; compound 2.44141e-7 M): 6
FP signal ([1]; compound 4.88281e-7 M): 5
FP signal ([1]; compound 9.76563e-7 M): 5
FP signal ([1]; compound 1.95313e-6 M): 6
FP signal ([1]; compound 3.90625e-6 M): 7
FP signal ([1]; compound 7.8125e-6 M): 7
FP signal ([1]; compound 1.5625e-5 M): 9
FP signal ([1]; compound 3.125e-5 M): 18
FP signal ([1]; compound 6.25e-5 M): 35
FP signal ([1]; compound 0.000125 M): 83
FP signal ([1]; compound 0.00025 M): 142
FP signal ([1]; compound 0.0005 M): 193
FP signal ([1]; compound 0.001 M): 240
Fluorescence polarization signal, 14-3-3β titration ([2]; CY compound (100 μM), 14-3-3β concentration 3.05176e-8 M): 2.667
Fluorescence polarization signal, 14-3-3β titration ([2]; CY compound (100 μM), 14-3-3β concentration 6.10352e-8 M): 5.667 and 3.667 and 4.667
Fluorescence polarization signal, 14-3-3β titration ([2]; CY compound (100 μM), 14-3-3β concentration 2.44141e-7 M): 10.6667 and 8.667
Fluorescence polarization signal, 14-3-3β titration ([2]; CY compound (100 μM), 14-3-3β concentration 4.88281e-7 M): 20.6667 and 17.6667 and 18.6667
Fluorescence polarization signal, 14-3-3β titration ([2]; CY compound (100 μM), 14-3-3β concentration 9.76563e-7 M): 35.6667 and 31.6667 and 32.6667
Fluorescence polarization signal, 14-3-3β titration ([2]; CY compound (100 μM), 14-3-3β concentration 1.95313e-6 M): 46.6667 and 44.6667 and 41.6667
Fluorescence polarization signal, 14-3-3β titration ([2]; CY compound (100 μM), 14-3-3β concentration 3.90625e-6 M): 61.6667 and 57.6667 and 56.6667
Fluorescence polarization signal, 14-3-3β titration ([2]; CY compound (100 μM), 14-3-3β concentration 7.8125e-6 M): 73.6667 and 74.6667 and 72.6667
Fluorescence polarization signal, 14-3-3β titration ([2]; CY compound (100 μM), 14-3-3β concentration 1.5625e-5 M): 84.6667 and 82.6667 and 83.6667
Fluorescence polarization signal, 14-3-3β titration ([2]; CY compound (100 μM), 14-3-3β concentration 3.125e-5 M): 94.6667 and 91.6667 and 92.6667
Fluorescence polarization signal, 14-3-3β titration ([2]; CY compound (100 μM), 14-3-3β concentration 6.25e-5 M): 107.667 and 108.667
Fluorescence polarization signal, 14-3-3β titration ([2]; CY compound (100 μM), 14-3-3β concentration 0.000125 M): 115.667 and 120.667 and 113.667
Fluorescence polarization signal, 14-3-3β titration ([2]; CY compound (100 μM), 14-3-3β concentration 0.00025 M): 128.667 and 129.667
Fluorescence polarization signal, 14-3-3β titration ([2]; CY compound (100 μM), 14-3-3β concentration 0.0005 M): 146.667 and 147.667
Fluorescence polarization signal, 14-3-3β titration ([2]; FC-A + CY compound, 14-3-3β concentration 7.62939e-9 M): 2 and 1
Fluorescence polarization signal, 14-3-3β titration ([2]; FC-A + CY compound, 14-3-3β concentration 6.10352e-8 M): 9 and 13 and 12
Fluorescence polarization signal, 14-3-3β titration ([2]; FC-A + CY compound, 14-3-3β concentration 1.2207e-7 M): 23
Fluorescence polarization signal, 14-3-3β titration ([2]; FC-A + CY compound, 14-3-3β concentration 2.44141e-7 M): 39 and 43 and 40
Fluorescence polarization signal, 14-3-3β titration ([2]; FC-A + CY compound, 14-3-3β concentration 4.88281e-7 M): 61 and 66 and 64
Fluorescence polarization signal, 14-3-3β titration ([2]; FC-A + CY compound, 14-3-3β concentration 9.76563e-7 M): 90 and 91
Fluorescence polarization signal, 14-3-3β titration ([2]; FC-A + CY compound, 14-3-3β concentration 1.95313e-6 M): 115 and 116
Fluorescence polarization signal, 14-3-3β titration ([2]; FC-A + CY compound, 14-3-3β concentration 3.90625e-6 M): 131 and 135 and 137
Fluorescence polarization signal, 14-3-3β titration ([2]; FC-A + CY compound, 14-3-3β concentration 7.8125e-6 M): 145 and 142 and 147
Fluorescence polarization signal, 14-3-3β titration ([2]; FC-A + CY compound, 14-3-3β concentration 1.5625e-5 M): 154 and 157
Fluorescence polarization signal, 14-3-3β titration ([2]; FC-A + CY compound, 14-3-3β concentration 3.125e-5 M): 158 and 155 and 159
Fluorescence polarization signal, 14-3-3β titration ([2]; FC-A + CY compound, 14-3-3β concentration 6.25e-5 M): 165 and 162
Fluorescence polarization signal, 14-3-3β titration ([2]; FC-A + CY compound, 14-3-3β concentration 0.000125 M): 160 and 162 and 164
Fluorescence polarization signal, 14-3-3β titration ([2]; FC-A + CY compound, 14-3-3β concentration 0.00025 M): 164 and 166 and 167
Fluorescence polarization signal, 14-3-3β titration ([2]; FC-A + CY compound, 14-3-3β concentration 0.0005 M): 172 and 174 and 170
Structure (SMILES): CN1CC(=O)NC(CCCNC(=N)N)C(=O)NC(CCC(N)=O)C(=O)NC(CCCNC(=N)N)C(=O)NCc2ccccc2-c2cccc(c2)C1 (stereo not drawn) [CY007491]
